{"source": "paper PMC7926352", "about": "“Synthesis, Characterization and In Vitro Evaluation of Novel 5-Ene-thiazolo[3,2-b][1,2,4]triazole-6(5H)-ones as Possible Anticancer Agents” (Molecules, 2021)", "key": {"[1]": {"system": "NSCLC (Non-small Cell Lung Cancer) cell lines", "details": "for GI50 / CC50: Homo sapiens"}, "CNS Cancer cell lines": {"system": "CNS Cancer cell lines", "details": "for GI50 / CC50: Homo sapiens"}, "[2]": {"system": "Ovarian Cancer cell lines", "details": "for GI50 / CC50: Homo sapiens"}, "[3]": {"system": "Prostate Cancer cell lines", "details": "for GI50 / CC50: Homo sapiens"}, "[4]": {"details": "read-out: GI50, values range inside panel"}, "[5]": {"details": "read-out: LC50, values range inside panel"}}, "note": "Where two headings read alike, the source gives them in different places.", "data": [{"smiles": "O=C(COc1ccc(Cl)cc1/C=c1\\sc2ncnn2c1=O)Nc1ccc(Cl)cc1", "note": "[Compound 2h, (Z)-2-(4-Chloro-2-((6-oxothiazolo[3,2-b][1,2,4]triazol-5(6H)-ylidene)methyl)phenoxy)-N-(4-chlorophenyl)acetamide]", "values": [{"measurement": "GI50", "setting": "K-562; Homo sapiens, K562", "value": 2.51, "unit": "µM"}, {"measurement": "CC50", "setting": "K-562; Homo sapiens, K562, read-out: LC50", "value": 49, "unit": "µM"}, {"measurement": "TGI", "setting": "K-562; K-562, Leukemia", "value": 14.45, "unit": "µM"}, {"measurement": "TGI", "setting": "HOP-92; HOP-92, NSCLC", "value": 11.74, "unit": "µM"}, {"measurement": "GI50", "setting": "HOP-92; Homo sapiens, HOP-92", "value": 2.29, "unit": "µM"}, {"measurement": "CC50", "setting": "HOP-92; Homo sapiens, HOP-92, read-out: LC50", "value": 34.7, "unit": "µM"}, {"measurement": "GI50", "setting": "NCI-H522; Homo sapiens, NCI-H522", "value": 3.16, "unit": "µM"}, {"measurement": "CC50", "setting": "NCI-H522; Homo sapiens, NCI-H522, read-out: LC50", "value": 38, "unit": "µM"}, {"measurement": "TGI", "setting": "NCI-H522; NCI-H522, NSCLC", "value": 9.99, "unit": "µM"}, {"measurement": "TGI", "setting": "HCC-2998; HCC-2998, Colon cancer", "value": 18.62, "unit": "µM"}, {"measurement": "GI50", "setting": "HCC-2998; Homo sapiens, HCC 2998", "value": 7.07, "unit": "µM"}, {"measurement": "CC50", "setting": "HCC-2998; Homo sapiens, HCC 2998, read-out: LC50", "value": 43.6, "unit": "µM"}, {"measurement": "TGI", "setting": "HCT-15; HCT-15, Colon cancer", "value": 21.37, "unit": "µM"}, {"measurement": "GI50", "setting": "HCT-15; Homo sapiens, HCT-15", "value": 9.33, "unit": "µM"}, {"measurement": "CC50", "setting": "HCT-15; Homo sapiens, HCT-15, read-out: LC50", "value": 45.7, "unit": "µM"}, {"measurement": "GI50", "setting": "SF-295; Homo sapiens, SF-295", "value": 1.86, "unit": "µM"}, {"measurement": "CC50", "setting": "SF-295; Homo sapiens, SF-295, read-out: LC50", "value": 18.6, "unit": "µM"}, {"measurement": "TGI", "setting": "SF-295; SF-295, CNS Cancer", "value": 5.24, "unit": "µM"}, {"measurement": "GI50", "setting": "M14; Homo sapiens, M14", "value": 8.31, "unit": "µM"}, {"measurement": "CC50", "setting": "M14; Homo sapiens, M14, read-out: LC50", "value": 45.7, "unit": "µM"}, {"measurement": "TGI", "setting": "M14; M14, Melanoma", "value": 20.89, "unit": "µM"}, {"measurement": "GI50", "setting": "UACC-62; Homo sapiens, UACC-62", "value": 2.69, "unit": "µM"}, {"measurement": "CC50", "setting": "UACC-62; Homo sapiens, UACC-62, read-out: LC50", "value": 38, "unit": "µM"}, {"measurement": "TGI", "setting": "UACC-62; UACC-62, Melanoma", "value": 14.79, "unit": "µM"}, {"measurement": "GI50", "setting": "OVCAR-5; Homo sapiens, OVCAR-5", "value": 11.2, "unit": "µM"}, {"measurement": "CC50", "setting": "OVCAR-5; Homo sapiens, OVCAR-5, read-out: LC50", "value": 47.9, "unit": "µM"}, {"measurement": "TGI", "setting": "OVCAR-5; OVCAR-5, Ovarian Cancer", "value": 23.44, "unit": "µM"}, {"measurement": "TGI", "setting": "786-0; 786-0, Renal Cancer", "value": 15.84, "unit": "µM"}, {"measurement": "GI50", "setting": "786-0; Homo sapiens, 786-0", "value": 4.16, "unit": "µM"}, {"measurement": "CC50", "setting": "786-0; Homo sapiens, 786-0, read-out: LC50", "value": 39.8, "unit": "µM"}, {"measurement": "TGI", "setting": "A498; A498, Renal Cancer", "value": 22.38, "unit": "µM"}, {"measurement": "GI50", "setting": "A498; Homo sapiens, A498", "value": 10.5, "unit": "µM"}, {"measurement": "CC50", "setting": "A498; Homo sapiens, A498, read-out: LC50", "value": 46.8, "unit": "µM"}, {"measurement": "TGI", "setting": "CAKI-1; CAKI-1, Renal Cancer", "value": 8.12, "unit": "µM"}, {"measurement": "GI50", "setting": "CAKI-1; Homo sapiens, CAKI-1", "value": 2.39, "unit": "µM"}, {"measurement": "CC50", "setting": "CAKI-1; Homo sapiens, CAKI-1, read-out: LC50", "value": 28.8, "unit": "µM"}, {"measurement": "GI50", "setting": "RXF 393; Homo sapiens, RXF 393", "value": 1.9, "unit": "µM"}, {"measurement": "CC50", "setting": "RXF 393; Homo sapiens, RXF 393, read-out: LC50", "value": 36.3, "unit": "µM"}, {"measurement": "TGI", "setting": "RXF 393; RXF 393, Renal Cancer", "value": 8.51, "unit": "µM"}, {"measurement": "GI50", "setting": "TK-10; Homo sapiens, TK-10", "value": 7.58, "unit": "µM"}, {"measurement": "CC50", "setting": "TK-10; Homo sapiens, TK-10, read-out: LC50", "value": 35.5, "unit": "µM"}, {"measurement": "TGI", "setting": "TK-10; TK-10, Renal Cancer", "value": 20.41, "unit": "µM"}, {"measurement": "GI50", "setting": "UO-31; Homo sapiens, UO-31", "value": 2.29, "unit": "µM"}, {"measurement": "CC50", "setting": "UO-31; Homo sapiens, UO-31, read-out: LC50", "value": 44.7, "unit": "µM"}, {"measurement": "TGI", "setting": "UO-31; UO-31, Renal Cancer", "value": 17.37, "unit": "µM"}, {"measurement": "TGI", "setting": "DU-145; DU-145, Prostate Cancer", "value": 4.46, "unit": "µM"}, {"measurement": "GI50", "setting": "DU-145; Homo sapiens, DU-145", "value": 1.54, "unit": "µM"}, {"measurement": "CC50", "setting": "DU-145; Homo sapiens, DU-145, read-out: LC50", "value": 15.8, "unit": "µM"}, {"measurement": "GI50", "setting": "MCF7; Homo sapiens, MCF7", "value": 0.79, "unit": "µM"}, {"measurement": "CC50", "setting": "MCF7; Homo sapiens, MCF7, read-out: LC50", "value": 19.5, "unit": "µM"}, {"measurement": "TGI", "setting": "MCF7; MCF7, Breast Cancer", "value": 4.07, "unit": "µM"}, {"measurement": "TGI", "setting": "BT-549; BT-549, Breast Cancer", "value": 8.51, "unit": "µM"}, {"measurement": "GI50", "setting": "BT-549; Homo sapiens, BT-549", "value": 2.34, "unit": "µM"}, {"measurement": "CC50", "setting": "BT-549; Homo sapiens, BT-549, read-out: LC50", "value": 35.5, "unit": "µM"}, {"measurement": "GI50", "setting": "[1]; read-out: GI50, panel MG_MID", "value": 6.98, "unit": "µM"}, {"measurement": "GI50", "setting": "[1]; [4]", "value": "2.29 to 15.5", "unit": "µM"}, {"measurement": "CC50", "setting": "[1]; read-out: LC50, panel MG_MID", "value": 44, "unit": "µM"}, {"measurement": "CC50", "setting": "[1]; [5]", "value": "31.6 to 60.2", "unit": "µM"}, {"measurement": "TGI, panel MG_MID", "setting": "[1]; NSCLC subpanel", "value": 18.22, "unit": "µM"}, {"measurement": "TGI, values range inside panel", "setting": "[1]; NSCLC subpanel", "value": "9.99 to 30.90", "unit": "µM"}, {"measurement": "TGI, panel MG_MID", "setting": "CNS Cancer cell lines; CNS Cancer subpanel", "value": 10.76, "unit": "µM"}, {"measurement": "TGI, values range inside panel", "setting": "CNS Cancer cell lines; CNS Cancer subpanel", "value": "4.46 to 15.48", "unit": "µM"}, {"measurement": "GI50", "setting": "CNS Cancer cell lines; read-out: GI50, panel MG_MID", "value": 2.87, "unit": "µM"}, {"measurement": "GI50", "setting": "CNS Cancer cell lines; [4]", "value": "1.77 to 4.07", "unit": "µM"}, {"measurement": "CC50", "setting": "CNS Cancer cell lines; read-out: LC50, panel MG_MID", "value": 38.6, "unit": "µM"}, {"measurement": "CC50", "setting": "CNS Cancer cell lines; [5]", "value": "12.6 to 87.1", "unit": "µM"}, {"measurement": "GI50", "setting": "[2]; read-out: GI50, panel MG_MID", "value": 8.05, "unit": "µM"}, {"measurement": "GI50", "setting": "[2]; [4]", "value": "2.11 to 15.5", "unit": "µM"}, {"measurement": "CC50", "setting": "[2]; read-out: LC50, panel MG_MID", "value": 52.1, "unit": "µM"}, {"measurement": "CC50", "setting": "[2]; [5]", "value": "19.5 to 97.7", "unit": "µM"}, {"measurement": "TGI, panel MG_MID", "setting": "[2]; Ovarian Cancer subpanel", "value": 20.34, "unit": "µM"}, {"measurement": "TGI, values range inside panel", "setting": "[2]; Ovarian Cancer subpanel", "value": "5.62 to 30.90", "unit": "µM"}, {"measurement": "GI50", "setting": "[3]; read-out: GI50, panel MG_MID", "value": 2.67, "unit": "µM"}, {"measurement": "GI50", "setting": "[3]; [4]", "value": "1.54 to 3.8", "unit": "µM"}, {"measurement": "CC50", "setting": "[3]; read-out: LC50, panel MG_MID", "value": 30.8, "unit": "µM"}, {"measurement": "CC50", "setting": "[3]; [5]", "value": "15.8 to 45.7", "unit": "µM"}, {"measurement": "TGI, panel MG_MID", "setting": "[3]; Prostate Cancer subpanel", "value": 10.34, "unit": "µM"}, {"measurement": "TGI, values range inside panel", "setting": "[3]; Prostate Cancer subpanel", "value": "4.46 to 16.21", "unit": "µM"}]}]}
